The values below come from patent publication US10167299B2, “1-(3-aminopropyl) substituted cyclic amine compounds, preparation method therefor, and pharmaceutical compositions and uses thereof” (SHANGHAI INSTITUTE OF MATERIA MEDICA, CHINESE ACADEMY OF …, priority 2013, dated 2019).

Data set [1] in a line: Cytotoxicity (CC50) in TZM-bl cells. The format is cell-based. Particulars: human.
In another data set the test system is CCR5 protein. The data set is described as follows: Thermal stability of protein test (CPM-assay). The format is binding. Particulars: thermal stability of CCR5 protein with compound, CPM dye. From the text: Experimental theory: many cysteines are present in CCR5 protein sequence. Cysteines located in loop region form disulfide bonds to stabilize the tertiary structure of the protein. Some free cysteines in reduced state are located in the transmembrane region. Under excitation by incident light of 387 nm, the combination of free sulfhydryl and fluorescent dye CPM can emit excitation light of 436 nm. […] The free sulfhydryls originally located in the transmembrane region expose and combine with the fluorescent dye. And then the detector will detect changes in signal enhancement. Therefore, the thermal stability of membrane proteins can be determined according to the temperature (Tm) at the midpoint of changes in signal intensity.
Experimental steps: Upon preliminary purification, the obtained protein solution was transferred into a small concentration tube (100 kd, 500 ul) for concentration (1000 rcf, 12 min, 4° C.). After centrifugation, the concentration tube was taken out and flicked to prevent protein coagulation due to high local concentration. The final concentrated volume was about 50 μl. 117 μl of purified solution (volume is suitable to make the total volume up to 120 μl), 1 μl fluorescent dye cpm (in-house prepared) and 2 μl of concentrated protein solution (the amount of added protein is 3-5 μg according to the calculated concentration of the protein solution and the concentrated volume) were added to 2 ml Ependorf tube and incubated at room temperature for 20 min. And then the mixture was added to the cuvette (Qwan) and put in the testing equipment Cary, wherein the surface of the frosted glass faced out. The temperature was set in the range of 4-90° C. with 1° C. increase per minute and the program was run. Tm value can be obtained by processing the data and graph with a mapping software and can be used to compare the difference of protein thermal stability under different conditions.

The next data set has as its system HIV-1SF162 virus strain. In words: Inhibition activity on TZM-bl cells infected with HIV-1SF162. Particulars: for EC50: Human immunodeficiency virus 1, TZM-bl; for therapeutic index (TI): TZM-bl cells infected with HIV-1SF162.
The next data set has as its target CCR5 (Homo sapiens (Human), UniProt P51681). In words: Calcium flux inhibition experiment. The format is cell-based. Particulars: for IC50: HEK293/CCR5-Gα16 cell line, calcium flux, read-out: CCR5 IC50; for calcium influx inhibition effect in words, versus positive control compounds: conclusion from Table 1. (In general: A change in cytosolic calcium serves as a functional read-out for many receptors and channels.)

Setting [2] is: TZM-bl cells (Table 3), read-out: CC50.

Values after ≈ are worked out from the molar mass of the structure shown. Read-outs that look alike come from different tables or passages of the source.

Chain of CCR5 (P51681 whole entry): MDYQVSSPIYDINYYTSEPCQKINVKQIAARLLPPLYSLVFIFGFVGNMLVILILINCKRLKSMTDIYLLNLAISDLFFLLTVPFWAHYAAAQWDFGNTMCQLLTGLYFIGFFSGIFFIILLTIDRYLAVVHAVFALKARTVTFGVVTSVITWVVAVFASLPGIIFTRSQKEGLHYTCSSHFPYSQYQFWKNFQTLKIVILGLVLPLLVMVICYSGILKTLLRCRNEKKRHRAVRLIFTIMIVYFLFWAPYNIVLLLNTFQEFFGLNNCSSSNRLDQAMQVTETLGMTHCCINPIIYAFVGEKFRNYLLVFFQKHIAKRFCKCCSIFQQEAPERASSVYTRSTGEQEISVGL

The CC50 is the concentration that lowers cell viability or growth by half. As a reminder, the EC50 is the concentration that produces a half-maximal response. As a reminder, the IC50 is the concentration at which inhibition is half-maximal. In the case of `Cc1nnc(C(C)C)n1C1CCN(CCC(NC(=O)C2CCC(F)(F)CC2)c2cccs2)CC1` (stereo not drawn) [Compound 1, 4,4-difluoro-N-[3-[4-(3-isopropyl-5-methyl-4H-1,2,4-triazol-4-yl)-piperidin-1-yl]-1-(thiophen-2-yl)propyl]cyclohexane-1-carboxamide], the CC50 in data set [1] (setting [2]) is above 100 mg/L. In the data set with CCR5 protein, the “Tm (° C.)” value was determined as 60.59 °C. Besides, in the data set on HIV-1SF162 virus strain, the EC50 was 0.29 mg/L (≈ 0.587 µM) and the “therapeutic index (TI)” value is on record as above 340.14. Also, the IC50 at CCR5 came to 0.0366 µM.
In the same order, the values of `CC(=O)NC(CCN1CCC(n2c(C)nnc2C(C)C)CC1)c1cccs1` (stereo not drawn) [Compound 2, N-[3-[4-(3-isopropyl-5-methyl-4H-1,2,4-triazol-4-yl)-piperidin-1-yl]-1-(thiophen-2-yl)propyl]acetamide] are above 100 mg/L, 65.23 °C, 0.326 mg/L (≈ 0.837 µM), above 306.75 and 0.0326 µM.
Consider `CC(=O)NC(CCN1C2CCC1CC(n1c(C)nnc1C(C)C)C2)c1cccs1` (stereo not drawn) [Compound 4, N-[3-[exo-3-(3-isopropyl-5-methyl-4H-1,2,4-triazol-4-yl)-8-azabicyclo[3.2.1]octane-8-yl]-1-(thiophen-2-yl)propyl]acetamide], for which, in data set [1] (setting [2]), the CC50 was found to be 42.8 mg/L (≈ 103 µM). Also, the “Tm (° C.)” value in the data set on CCR5 protein amounted to 65.64 °C. In the data set with HIV-1SF162 virus strain, the EC50 is 1.46 mg/L (≈ 3.51 µM) and the “therapeutic index (TI)” value was 29.29. Moreover, the IC50 at CCR5 worked out at 0.015 µM.
Turning to `Cc1nnc(C(C)C)n1C1CCN(CC[C@H](NC(=O)C2CCC(F)(F)CC2)c2cccnc2)CC1` [Compound 5, 4,4-difluoro-N-[(1S)-3-[4-(3-isopropyl-5-methyl-4H-1,2,4-triazol-4-yl)-piperidin-1-yl]-1-(pyridin-3-yl)propyl]cyclohexane-1-carboxamide], in the data set with CCR5 protein, the “Tm (° C.)” value turned out to be 57.31 °C. At CCR5, the IC50 came out at 0.0297 µM.
`Cc1nnc(C(C)C)n1C1CCN(CC[C@H](NC(=O)C2CCCCC2)c2cccnc2)CC1` [Compound 7, N-[(1S)-3-[4-(3-isopropyl-5-methyl-4H-1,2,4-triazol-4-yl)-piperidin-1-yl]-1-(pyridin-3-yl)propyl]cyclohexane-1-carboxamide]: the CC50 in data set [1] (setting [2]) is above 100 mg/L. Also, the “Tm (° C.)” value in the data set with CCR5 protein turned out to be 57.21 °C. For the same compound, in the data set on HIV-1SF162 virus strain, the EC50 turned out to be 2.34 mg/L (≈ 5.17 µM) and the “therapeutic index (TI)” value was 50.31. For the same compound, the IC50 at CCR5 worked out at 0.0352 µM.
As for `Cc1nnc(C(C)C)n1C1CCN(CC[C@H](NC(=O)C2CCCC2)c2cccnc2)CC1` [Compound 9, N-[(1S)-3-[4-(3-isopropyl-5-methyl-4H-1,2,4-triazol-4-yl)-piperidin-1-yl]-1-(pyridin-3-yl)propyl]cyclopentane-1-carboxamide], in data set [1] (setting [2]), the CC50 is above 100 mg/L. Also, the “Tm (° C.)” value with CCR5 protein was found to be 61.32 °C. Also, in the data set on HIV-1SF162 virus strain, the EC50 was 1.81 mg/L (≈ 4.13 µM) and the “therapeutic index (TI)” value was 55.42. Also, the IC50 at CCR5 turned out to be 0.0793 µM.
For `Cc1nnc(C(C)C)n1C1CC2CCC(C1)N2CC[C@H](NC(=O)C1CCCC1)c1cccnc1` (stereo partly drawn) [Compound 10, N-[(1S)-3-[exo-3-(3-isopropyl-5-methyl-4H-1,2,4-triazol-4-yl)-8-azabicyclo[3.2.1]octane-8-yl]-1-(pyridin-3-yl)propyl]cyclopentane-1-carboxamide], the CC50 in data set [1] was above 100 mg/L. Besides, in the data set with CCR5 protein, the “Tm (° C.)” value stood at 63.21 °C. In the data set on HIV-1SF162 virus strain, a half-maximal effect (EC50) was put at 1.42 mg/L (≈ 3.06 µM) and the “therapeutic index (TI)” value is on record as above 70.42. Also, on CCR5, the IC50 is 0.0366 µM.
For the compound `Cc1nnc(C(C)C)n1C1CC2CCC(C1)N2CC[C@H](NC(=O)C1CCCCC1)c1ccsc1` (stereo partly drawn) [Compound 24], the “Tm (° C.)” value in the data set on CCR5 protein turned out to be 62.31 °C. The IC50 at CCR5 is 0.0446 µM.
In turn, `CC(=O)N[C@@H](CCN1C2CCC1CC(n1c(C)nc3c1CCN(C(=O)C(C)C)C3)C2)c1ccc(Cl)s1` (stereo partly drawn) [Compound 129, N-{(1S)-3-[(3-endo)-3-(5-isobutyryl-2-methyl-4,5,6,7-tetrahydro-1H-imidazo[4,5-c]pyridin-1-yl)-8-azabicyclo[3.2.1]octane-8-yl]-1-(5-chlorothiophen-2-yl)-propyl}acetamide] had a CC50 in data set [1] above 200 mg/L. Moreover, in the data set on HIV-1SF162 virus strain, a half-maximal response (EC50) required 0.072 mg/L (≈ 0.135 µM) and the “therapeutic index (TI)” value was above 1526.72. On CCR5, the IC50 worked out at 0.0142 µM.
In the same order, the values of `CC(=O)N[C@@H](CCN1C2CCC1CC(n1c(C)nc3c1CCN(C(=O)C1CC1)C3)C2)c1ccc(Cl)s1` (stereo partly drawn) [Compound 130, N-{(1S)-3-[(3-endo)-3-(5-cyclopropionyl-2-methyl-4,5,6,7-tetrahydro-1H-imidazo[4,5-c]pyridin-1-yl)-8-azabicyclo[3.2.1]octane-8-yl]-1-(5-chlorothiophen-2-yl)-propyl}acetamide] are above 200 mg/L, 0.053 mg/L (≈ 0.1 µM), above 2562.98 and 0.0185 µM.
As for `CC(=O)N[C@@H](CCN1C2CCC1CC(n1c(C)nc3c1CCN(C(C)=O)C3)C2)c1ccc(F)s1` (stereo partly drawn) [Compound 131, N-{(1S)-3-[(3-endo)-3-(5-acetyl-2-methyl-4,5,6,7-tetrahydro-1H-imidazo[4,5-c]pyridin-1-yl)-8-azabicyclo[3.2.1]octane-8-yl]-1-(5-fluorothiophen-2-yl)-propyl}acetamide], the CC50 in data set [1] (setting [2]) was above 200 mg/L. Further, in the data set on HIV-1SF162 virus strain, a half-maximal effect (EC50) was put at 0.098 mg/L (≈ 0.201 µM) and the “therapeutic index (TI)” value was above 1302.27. In addition, on CCR5, the IC50 amounted to 0.00657 µM and the “calcium influx inhibition effect in words, versus positive control compounds” value is listed as “better than the positive control compounds”.
Turning to `CC(=O)N[C@@H](CCN1C2CCC1CC(n1c(C)nc3c1CCN(C(=O)C1CC1)C3)C2)c1ccc(F)s1` (stereo partly drawn) [Compound 132, N-{(1S)-3-[(3-endo)-3-(5-cyclopropionyl-2-methyl-4,5,6,7-tetrahydro-1H-imidazo[4,5-c]pyridin-1-yl)-8-azabicyclo[3.2.1]octane-8-yl]-1-(5-fluorothiophen-2-yl)-propyl}acetamide], the CC50 in data set [1] (setting [2]) was above 200 mg/L. In addition, in the data set on HIV-1SF162 virus strain, the EC50 stood at 0.097 mg/L (≈ 0.189 µM) and the “therapeutic index (TI)” value is given as above 2063.25. For the same compound, the IC50 on CCR5 was found to be 0.0222 µM.
In turn, `COC(=O)N1CCc2c(nc(C)n2C2CC3CCC(C2)N3CC[C@H](NC(C)=O)c2ccc(F)s2)C1` (stereo partly drawn) [Compound 133, Methyl 1-{(endo)-8-[(S)-3-acetamido-3-(5-fluorothiophen-2-yl)-propyl]-8-azabicyclo[3.2.1]octan-3-yl}-2-methyl-1,4,6,7-tetrahydro-5H-imidazo[4,5-c]pyridine-5-carboxylate] showed a CC50 in data set [1] above 200 mg/L. Besides, in the data set with HIV-1SF162 virus strain, the response was half-maximal at 0.152 mg/L (≈ 0.302 µM) (EC50) and the “therapeutic index (TI)” value is above 1313.56. At CCR5, the IC50 worked out at 0.00178 µM and the “calcium influx inhibition effect in words, versus positive control compounds” value is given as “better than the positive control compounds”.
Regarding `CCC(=O)N1CCc2c(nc(C)n2C2CC3CCC(C2)N3CC[C@H](NC(C)=O)c2ccc(F)s2)C1` (stereo partly drawn) [Compound 134, N-{(1S)-3-[(3-endo)-3-(5-propionyl-2-methyl-4,5,6,7-tetrahydro-1H-imidazo[4,5-c]pyridin-1-yl)-8-azabicyclo[3.2.1]octane-8-yl]-1-(5-fluorothiophen-2-yl)-propyl}acetamide], the CC50 in data set [1] was above 200 mg/L. In the data set on HIV-1SF162 virus strain, the half-maximal effective concentration (EC50) turned out to be 0.113 mg/L (≈ 0.225 µM) and the “therapeutic index (TI)” value is reported as above 1772.41. On CCR5, the IC50 worked out at 0.0221 µM.
Turning to `CC(=O)N[C@@H](CCN1C2CCC1CC(n1c(C)nc3c1CCN(C(=O)C(C)C)C3)C2)c1ccc(F)s1` (stereo partly drawn) [Compound 135, N-{(1S)-3-[(3-endo)-3-(5-isobutyryl-2-methyl-4,5,6,7-tetrahydro-1H-imidazo[4,5-c]pyridin-1-yl)-8-azabicyclo[3.2.1]octane-8-yl]-1-(5-fluorothiophen-2-yl)-propyl}acetamide], the CC50 in data set [1] was above 200 mg/L. Moreover, in the data set on HIV-1SF162 virus strain, the midpoint of the response, the EC50, lay at 0.155 mg/L (≈ 0.301 µM) and the “therapeutic index (TI)” value is listed as above 1222.11. Also, at CCR5, the IC50 worked out at 0.00828 µM and the “calcium influx inhibition effect in words, versus positive control compounds” value was “comparable to the positive control compounds”.
On to `CCCC(=O)N1CCc2c(nc(C)n2C2CC3CCC(C2)N3CC[C@H](NC(C)=O)c2ccc(F)s2)C1` (stereo partly drawn) [Compound 136, N-{(1S)-3-[(3-endo)-3-(5-n-butyryl-2-methyl-4,5,6,7-tetrahydro-1H-imidazo[4,5-c]pyridin-1-yl)-8-azabicyclo[3.2.1]octane-8-yl]-1-(5-fluorothiophen-2-yl)-propyl}acetamide], for which the 50% cytotoxic concentration (CC50) in data set [1] (setting [2]) is above 200 mg/L. Also, in the data set with HIV-1SF162 virus strain, a half-maximal response (EC50) required 0.011 mg/L (≈ 0.0213 µM) and the “therapeutic index (TI)” value is above 4834.51. Further, the IC50 on CCR5 was determined as 0.0221 µM.
